# Assay results: patent US9198909B1, “Materials and methods for inhibiting mamalian S-nitrosoglutathione reductase” (Indiana University Research and Technology Corporation, priority 2007, dated 2015)
# Key:
# [1] = target: GSNOR (Homo sapiens, UniProt P11766); assay: GSNOR inhibition at pH 10 (octanol, NAD+); type: biochemical; parameters: made in house; host or cells: E. coli; conditions: pH 10 versus pH 7.5
# Experimental: Referring now to Table 1, inhibition was studied at pH 10. These assays were performed in 0.1 M sodium glycine containing 1 mM octanol, 1 mM NAD^+, 0.1 mM EDTA and 50 μM inhibitor. Inhibition studies at pH 7.5 were performed in 50 mM potassium phosphate pH 7.5 that included 15 μM NADH, 10 μM GSNO, 0.1 mM EDTA and 50 μM inhibitor. The data file to a model consisted with partial inhibition and a hill coefficient of 2.4 in the inhibition curve. The screening for GSNOR inhibitors was performed using a library of 60,000 compounds from ChemDiv Inc in the Chemical Genomics Core facility at Indiana University. Screening was conducted in 384 well plates and involved incubating GSNOR with 12.5 μM compound, 1 mM each of NAD^+ and octanol in 0.1 M sodium glycine pH 10. Enzyme activity was determined by measuring the rate of production of NADH spectrophotometrically at 340 nm. Inhibition of GSNOR was calculated from the ratio of enzyme activity in the presence of compounds to that in no compound controls performed on the same assay plate. Following their identification from the high-throughput screening, the GSNOR inhibitory properties of the initial hits were confirmed at the pH 10 using 12-hydroxydodecanoic acid as the substrate and at pH 7.5 using GSNO as the substrate (see the brief description of Table 1 for details on how the assay was carried out.)
# [2] = test system: RAW 264.7 cells; assay: cGMP accumulation in RAW 264.7 cells; type: cell-based, rat; conditions: 50 μM GSNO, 10 minutes
# Experimental: cGMP plays key roles in vascular biology. To test whether inhibition of GSNOR increases cGMP production, RAW 264.7 cells were incubated with 50 μM GSNO±, both with and without compound 8, one of the subject GSNOR inhibitors of this invention. Next the amount of cGMP accumulation after 10 minutes was measured. Referring now to FIG. 6, GSNO activates soluble Guanylate Cyclase as previously described (Mayer et al J Biol Chem, Vol. 273, Issue 6, 3264-3270, Feb. 6, 1998). Compound 8 (GSNORi in the figure) potentiates the effect of GSNO by 2.5 fold.
# Referring now to FIG. 6, RAW 264.7 cells were incubated with 50 μM GSNO±compound 8 the subject GSNOR inhibitor of this invention and then measured the amount of cGMP accumulation after 10 minutes. As shown in the figure GSNO activates soluble Guanylate Cyclase as previously described (Mayer et al J Biol Chem, Vol. 273, Issue 6, 3264-3270, Feb. 6, 1998). One mechanism by which compound 8 exerts its biochemical effects is due to its inhibition of GSNOR, which then potentiates the effects of GSNO on cGMP production resulting in higher cGMP levels.
# [3] = test system: RAW 264.7 cells; assay: s-Nitrosothiol accumulation in RAW 264.7 cells, biotin switch assay; type: cell-based, rat
# Experimental: Referring now to FIG. 4, RAW 264.7 cells were cultured in DMEM containing 10% heat-inactivated serum. Cells were treated with 33 μM of Compound 8 for 0, 2, 4, 8, or 24 h alone or in combination with 1 mM NAME for 4 h (lane 4+N). At indicated times, the cells were quenched and the lysate was analyzed for s-nitrosothiol content by the biotin switch assay.
# RAW 264.7 cells were cultured in 10% heat-inactivated serum containing DMEM. Cells were treated with 33 micromolar compound 8 for varied lengths of time alone or in combination with 1 mM NAME for 4 h (4+N). […] Briefly, free sulfydryls in ˜200 μg of cell lysate were blocked with 20 mM MMTS in 1 ml of HEN buffer (250 mM HEPES pH 7.7 containing 1 mM EDTA and 0.1 mM Neocupronine) containing 2% SDS at 50° C. for 20 min. Free MMTS was removed by gel-filtration spin columns and the blocked proteins were labeled with 1 mM Biotin-HPDP (Pierce) in presence or absence of 30 mM ascorbate and 2 μM CuCl for 2.5 hours.
# [4] = test system: RAW 264.7 cells; assay: Nitroso species accumulation in RAW 264.7 cells (triiodide chemiluminescence); type: cell-based, rat
# Experimental: Referring now to FIG. 3, briefly, RAW 264.7 cells were incubated with 500 μM GSNO alone (γ) or in presence of 33 μM Compound 6 (◯) or 7 (Δ) or 8 (▪). At indicated times or at 4 hr (in case of B), the cells were lysed and the lysate was analyzed for protein and nitroso species concentration by Bradford and chemiluminescence assay, respectively. For details, see Materials and methods. Data represents mean±SE (n=3−12).
# RAW 264.7 cells were cultured in DMEM medium supplemented with 10% FBS, 200 U/ml of penicillin and 200 μg/mL of streptomycin. The cells were incubated at 37° C. in an atmosphere containing 5% CO2 and 95% air. For the experiments, 1-2×10^6 cells were plated in six-well plates a day before the experiment. On the day of the assay the medium was replaced with 3 ml of fresh medium and the cells were treated with compounds for a predetermined length of time. Following the incubation period, the cells were washed three times with PBS and scraped off the plate in 250 μl of lysis buffer (50 mM potassium phosphate pH 7.0 containing 50 mM NEM and 1 mM EDTA). Cells were lysed by sonication using a micro tip probe (three pulses of 30% duty cycle; 2 output control on a Fisher Sonicator). Cell debris was pelleted by centrifugation (10 min at 16,000 g) and the cell lysate was analyzed for protein concentration using the Bio-Rad dye-binding protein assay. The concentration of nitroso compounds in the cell lysate was determined using the triiodide based chemiluminescence method using a Sievers 280 nitric oxide analyzer. Briefly, cell lysates were treated with 15% v/v of a sulfanilamide solution (5% w/v in 0.2 M HCl) and kept at room temperature for 5 min to remove nitrite. The triodide mixture was prepared fresh every day as described earlier and kept at 60° C. in the reaction vessel. The concentration of nitroso species was derived from a standard curve generated using GSNO. For determining the amount of the small size nitroso compounds in the cell lysate, a 5 kDa-cutoff Amicon ultra filtration unit was used according to the supplier's instructions. The amount of s-nitrosothiols in the cell lysate was determined by treating initially passing the cell lysate through a microspin column and treating the eluate with 5 mM HgCl2 before determining the nitroso compound concentration using chemiluminescence. For some experiments the cells were pretreated with the compounds for 16 hours prior to the day of experiment.
# Chain of GSNOR (P11766 2-374 limits assumed): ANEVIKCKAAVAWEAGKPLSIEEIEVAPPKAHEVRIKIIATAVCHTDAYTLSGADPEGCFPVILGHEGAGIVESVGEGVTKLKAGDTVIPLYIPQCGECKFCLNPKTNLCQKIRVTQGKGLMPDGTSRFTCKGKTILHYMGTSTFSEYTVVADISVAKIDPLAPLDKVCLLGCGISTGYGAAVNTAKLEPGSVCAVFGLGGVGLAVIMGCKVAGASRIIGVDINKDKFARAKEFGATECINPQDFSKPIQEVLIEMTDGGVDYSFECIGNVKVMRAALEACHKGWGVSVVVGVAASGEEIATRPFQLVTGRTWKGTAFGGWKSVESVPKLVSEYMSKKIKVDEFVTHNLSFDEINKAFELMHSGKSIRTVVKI
compound,measurement,setting,value
N#Cc1ccccc1CSc1nc2ccsc2c(=O)n1Cc1ccc(C(=O)O)cc1 [Compound 8],GSNOR inhibition at pH 10 compared with pH 7.5,[1],higher GSNOR inhibition at pH 10 than at pH 7.5
same,potentiation of the effect of GSNO on cGMP,[2],2.5 fold
same,time of peak effect on nitrosylation of cellular proteins,[3]; 33 μM,around 8 hours
same,time to decrease to normal nitrosylation levels,[3]; 33 μM,≤ 24 h
same,accumulation of SNOs with simultaneous L-NAME,"[3]; 33 μM compound 8 + 1 mM NAME, 4 h",less
same,nitrosylation of cellular proteins,"[3]; 33 μM, 0-24 h",increased the nitrosylation of cellular proteins with time
same,"nitrosylation, fold higher than Compound 7","[4]; 33 μM initial concentration, 500 μM GSNO, 4 hr",3 fold
same,decrease in nitrosylated species relative to amounts at 4 hours,"[4]; exposure up to 24 hours, data not shown",80%
